Measured values reported in ChEMBL document CHEMBL5370655.
pIC50: −log10 of the molar value.

Legend:
[1] = target: T1, Epidermal growth factor receptor (Homo sapiens, UniProt P00533, C797S/L858R/T790M)
[2] = target: Epidermal growth factor receptor (Homo sapiens, UniProt P00533, L858R/T790M); assay: Inhibition of EGFR L858R/T790M double mutant (unknown origin) using polyE4Y1 as substrate incubated for 5 mins with compound followed by substrate addition measured after 60 mins in presence of ATP by ADP-Glo reagent based assay
[3] = target: Epidermal growth factor receptor (Homo sapiens, UniProt P00533, C797S/EX19DEL/T790M)
Chain of Epidermal growth factor receptor (Homo sapiens, UniProt P00533, C797S/EX19DEL/T790M) (P00533 whole entry, looked up, stated change not applied): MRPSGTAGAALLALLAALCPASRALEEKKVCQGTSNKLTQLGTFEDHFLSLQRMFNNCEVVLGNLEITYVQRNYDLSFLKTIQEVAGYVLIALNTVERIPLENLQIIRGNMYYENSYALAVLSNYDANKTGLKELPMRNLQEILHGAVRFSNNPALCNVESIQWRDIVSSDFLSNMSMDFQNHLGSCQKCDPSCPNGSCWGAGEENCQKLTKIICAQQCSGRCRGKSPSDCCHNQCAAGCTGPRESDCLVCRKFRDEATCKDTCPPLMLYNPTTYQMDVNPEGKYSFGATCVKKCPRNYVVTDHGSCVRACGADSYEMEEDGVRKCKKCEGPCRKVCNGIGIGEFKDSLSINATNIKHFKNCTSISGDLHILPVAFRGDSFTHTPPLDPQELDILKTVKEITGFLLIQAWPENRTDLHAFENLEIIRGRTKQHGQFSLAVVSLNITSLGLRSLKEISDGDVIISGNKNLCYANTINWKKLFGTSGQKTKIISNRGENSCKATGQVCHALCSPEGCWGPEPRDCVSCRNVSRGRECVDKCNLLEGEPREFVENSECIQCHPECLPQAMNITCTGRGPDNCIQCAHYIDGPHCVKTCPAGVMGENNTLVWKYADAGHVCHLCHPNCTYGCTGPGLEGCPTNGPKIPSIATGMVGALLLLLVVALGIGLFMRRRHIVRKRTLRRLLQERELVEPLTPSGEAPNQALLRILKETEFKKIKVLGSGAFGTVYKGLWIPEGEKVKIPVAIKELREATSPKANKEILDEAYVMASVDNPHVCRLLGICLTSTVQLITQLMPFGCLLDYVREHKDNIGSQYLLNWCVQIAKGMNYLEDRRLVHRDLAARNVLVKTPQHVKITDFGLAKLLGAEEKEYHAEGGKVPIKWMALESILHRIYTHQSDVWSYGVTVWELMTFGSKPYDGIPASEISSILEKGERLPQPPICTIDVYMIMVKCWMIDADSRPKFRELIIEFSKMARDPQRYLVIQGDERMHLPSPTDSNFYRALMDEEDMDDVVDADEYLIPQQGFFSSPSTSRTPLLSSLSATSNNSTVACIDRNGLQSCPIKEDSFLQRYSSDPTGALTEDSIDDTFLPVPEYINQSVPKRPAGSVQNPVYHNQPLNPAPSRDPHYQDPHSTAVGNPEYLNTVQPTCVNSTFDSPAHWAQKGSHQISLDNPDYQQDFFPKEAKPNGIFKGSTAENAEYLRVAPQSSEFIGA

A-431 = assay: Antiproliferative activity against human A-431 cells assessed as inhibition of cell growth measured after 72 hrs by CCK8 assay; type: functional, cell-based; conditions: A-431, 72 h
PC-9 [4] = assay: Antiproliferative activity against human PC-9 cells assessed as inhibition of cell growth measured after 72 hrs by CCK8 assay; type: functional, cell-based; conditions: PC-9, 72 h
NCI-H1975 = assay: Antiproliferative activity against human NCI-H1975 cells assessed as inhibition of cell growth measured after 72 hrs by CCK8 assay; type: functional, cell-based; conditions: NCI-H1975, 72 h
PC-9 [5] = type: functional, cell-based; conditions: Homo sapiens, PC-9, 72 h
[6] = target: Epidermal growth factor receptor (Homo sapiens, UniProt P00533, L858R)
Chain of Epidermal growth factor receptor (Homo sapiens, UniProt P00533, L858R) (P00533 25-1210 L858R limits assumed): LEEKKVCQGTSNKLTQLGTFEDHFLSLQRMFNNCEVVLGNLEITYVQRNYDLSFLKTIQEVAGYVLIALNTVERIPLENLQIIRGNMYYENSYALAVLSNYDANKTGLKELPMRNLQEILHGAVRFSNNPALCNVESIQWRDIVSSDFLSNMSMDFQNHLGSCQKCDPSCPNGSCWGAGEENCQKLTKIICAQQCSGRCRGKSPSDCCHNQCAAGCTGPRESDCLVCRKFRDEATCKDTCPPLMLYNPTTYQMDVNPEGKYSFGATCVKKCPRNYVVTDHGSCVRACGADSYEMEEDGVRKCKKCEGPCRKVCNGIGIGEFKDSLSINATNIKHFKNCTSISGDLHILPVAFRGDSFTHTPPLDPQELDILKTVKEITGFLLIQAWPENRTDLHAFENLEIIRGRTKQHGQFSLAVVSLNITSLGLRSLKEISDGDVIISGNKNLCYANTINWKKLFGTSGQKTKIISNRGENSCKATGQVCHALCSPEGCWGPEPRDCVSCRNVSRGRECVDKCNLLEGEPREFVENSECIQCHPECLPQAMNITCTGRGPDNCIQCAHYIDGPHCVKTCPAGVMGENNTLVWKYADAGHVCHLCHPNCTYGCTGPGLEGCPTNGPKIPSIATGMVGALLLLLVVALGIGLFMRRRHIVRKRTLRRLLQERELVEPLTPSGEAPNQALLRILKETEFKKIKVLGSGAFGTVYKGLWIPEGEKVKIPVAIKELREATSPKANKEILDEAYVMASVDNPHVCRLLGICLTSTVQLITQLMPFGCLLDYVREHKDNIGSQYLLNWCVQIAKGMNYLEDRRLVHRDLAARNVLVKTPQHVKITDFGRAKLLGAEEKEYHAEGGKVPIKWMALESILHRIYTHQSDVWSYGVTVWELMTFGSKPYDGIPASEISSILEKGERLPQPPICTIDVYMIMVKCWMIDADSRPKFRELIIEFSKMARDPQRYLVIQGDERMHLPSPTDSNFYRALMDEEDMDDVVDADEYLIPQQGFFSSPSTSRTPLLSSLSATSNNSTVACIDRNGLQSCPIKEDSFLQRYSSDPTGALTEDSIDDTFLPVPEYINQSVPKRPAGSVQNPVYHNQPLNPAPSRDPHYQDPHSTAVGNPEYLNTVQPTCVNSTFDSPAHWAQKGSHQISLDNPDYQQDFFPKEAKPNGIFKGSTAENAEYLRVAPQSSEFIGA

[7] = target: Epidermal growth factor receptor (Homo sapiens, UniProt P00533)
Chain of Epidermal growth factor receptor (Homo sapiens, UniProt P00533) (P00533 whole entry): as the sequence (P00533 whole entry, looked up, stated change not applied) above
Description: Inhibition of wild-type EGFR (unknown origin) using polyE4Y1 as substrate incubated for 5 mins with compound followed by substrate addition measured after 60 mins in presence of ATP by ADP-Glo reagent based assay

[8] = target: T1, Epidermal growth factor receptor; remark: listed apart in the source
[9] = Induction of cell cycle arrest in human H1975-TM cells assessed as accumulation at G2/M phase at 500 nM measured after 24 hrs by RNase A/propidium iodide staining based flow cytometric analysis (reference value: 17.6 %); type: functional
[10] = Induction of cell cycle arrest in human H1975-TM cells assessed as accumulation at S phase at 500 nM measured after 24 hrs by RNase A/propidium iodide staining based flow cytometric analysis (reference value: 18.1 %); type: functional
[11] = Induction of cell cycle arrest in human H1975-TM cells assessed as accumulation at G0/G1 phase at 500 nM measured after 24 hrs by RNase A/propidium iodide staining based flow cytometric analysis (reference value: 64.3 %); type: functional
[12] = Induction of apoptosis in human H1975-TM cells assessed as apoptotic cells at 500 nM measured after 24 by Annexin V-FITC and propidium iodide staining based flow cytometric analysis (reference value: 7.08 %); type: functional; conditions: time 24 hrs
[13] = Antitumor activity against human H1975-TM cells xenografted in BALB/c mouse assessed as tumor growth inhibition at 25 mg/kg, po measured after 25 days; type: functional; conditions: time 25 day

T1 sequence (P00533 25-1210 T790M/C797S/L858R limits assumed): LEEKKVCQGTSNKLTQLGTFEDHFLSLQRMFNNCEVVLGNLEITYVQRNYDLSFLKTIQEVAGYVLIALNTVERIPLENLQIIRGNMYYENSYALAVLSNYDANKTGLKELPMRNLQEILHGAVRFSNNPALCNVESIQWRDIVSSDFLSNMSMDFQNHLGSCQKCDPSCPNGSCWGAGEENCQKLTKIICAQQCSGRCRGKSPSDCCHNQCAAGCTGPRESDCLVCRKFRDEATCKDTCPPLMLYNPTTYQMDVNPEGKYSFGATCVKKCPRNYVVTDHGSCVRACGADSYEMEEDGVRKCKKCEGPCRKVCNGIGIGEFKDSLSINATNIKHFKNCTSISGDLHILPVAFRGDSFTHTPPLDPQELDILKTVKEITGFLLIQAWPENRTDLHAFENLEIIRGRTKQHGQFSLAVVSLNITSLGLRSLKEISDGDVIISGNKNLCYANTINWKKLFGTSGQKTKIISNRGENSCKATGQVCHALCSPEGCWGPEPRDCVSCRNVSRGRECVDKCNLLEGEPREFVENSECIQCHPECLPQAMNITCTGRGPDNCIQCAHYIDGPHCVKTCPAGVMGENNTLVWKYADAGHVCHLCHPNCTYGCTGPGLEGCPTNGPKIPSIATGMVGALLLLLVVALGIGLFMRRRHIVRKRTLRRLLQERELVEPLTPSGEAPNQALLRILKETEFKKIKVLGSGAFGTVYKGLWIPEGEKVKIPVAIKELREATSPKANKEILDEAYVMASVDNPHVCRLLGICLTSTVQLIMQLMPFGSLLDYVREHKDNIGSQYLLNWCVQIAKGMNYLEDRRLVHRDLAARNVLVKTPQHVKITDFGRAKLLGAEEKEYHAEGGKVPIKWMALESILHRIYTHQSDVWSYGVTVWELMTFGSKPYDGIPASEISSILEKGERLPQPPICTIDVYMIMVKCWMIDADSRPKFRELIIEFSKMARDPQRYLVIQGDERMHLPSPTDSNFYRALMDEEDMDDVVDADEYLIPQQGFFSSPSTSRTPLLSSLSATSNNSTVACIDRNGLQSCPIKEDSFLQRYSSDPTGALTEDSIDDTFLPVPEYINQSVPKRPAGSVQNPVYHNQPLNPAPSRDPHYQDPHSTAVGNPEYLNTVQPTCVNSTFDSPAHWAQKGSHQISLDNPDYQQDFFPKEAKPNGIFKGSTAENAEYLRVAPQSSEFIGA

| SMILES | pIC50 [1] | further results |
| --- | --- | --- |
| CCS(=O)(=O)N1CCC(c2nc(-c3ccc(F)cc3)c(-c3ccnc(Nc4ccc5c(ccn5CCN5CCOCC5)c4)n3)s2)CC1 | 7.15 | – |
| COc1ccc(-c2nccn2-c2ccnc(Nc3ccc4c(ccn4CCN(C)C)c3)n2)cc1 | 6.54 | – |
| CCN(CC)CCn1ccc2cc(Nc3nccc(-c4sc(C5CCN(S(=O)(=O)CC)CC5)nc4-c4ccc(F)cc4)n3)ccc21 | 7.47 | – |
| CN(C)CCn1ccc2cc(Nc3nccc(-n4ccnc4-c4cccc(F)c4)n3)ccc21 | 7.05 | – |
| CCS(=O)(=O)N1CCC(c2nc(-c3ccc(F)cc3)c(-c3ccnc(Nc4ccc(N5CCN(C)CC5)c(C)c4)n3)s2)CC1 | 7.44 | pIC50 [2]: 7.77; pIC50 [3]: 7.15; pIC50 (A-431): 6.21; pIC50 (PC-9 [4]): 7.46; pIC50 (NCI-H1975): 7.00; pIC50 (PC-9 [5]): 7.40; pIC50 [6]: 8.24; pIC50 [7]: 7.17; pIC50 [8]: 6.54 |
| CCS(=O)(=O)N1CCC(c2nc(-c3ccc(F)cc3)c(-c3ccnc(Nc4ccc(N5CCN(C(C)C)CC5)cc4)n3)s2)CC1 | 7.31 | – |
| CCS(=O)(=O)N1CCC(c2nc(-c3ccc(F)cc3)c(-c3ccnc(Nc4ccc(N5CCOCC5)cc4)n3)s2)CC1 | 7.24 | – |
| CN(C)CCn1ccc2cc(Nc3nccc(-n4ccc(-c5ccc(F)cc5)n4)n3)ccc21 | 6.39 | – |
| CCS(=O)(=O)N1CCC(c2nc(-c3ccc(F)cc3)c(-c3ccnc(Nc4ccc(N5CCOCC5)cc4OC)n3)s2)CC1 | 7.15 | – |
| CN1CCN(c2ccc(Nc3nccc(-n4ccnc4-c4ccc(F)cc4)n3)cc2)CC1 | 7.20 | – |
| COc1cc(N2CCC(N3CCN(C)CC3)CC2)ccc1Nc1ncc(Cl)c(Nc2ccccc2P(C)(C)=O)n1 [BRIGATINIB] | – | pIC50 (A-431): 6.29; pIC50 (PC-9 [4]): 7.06; pIC50 (NCI-H1975): 6.49; pIC50 (PC-9 [5]): 6.41; Activity [9]: 11.1%; Activity [10]: 10.5%; Activity [11]: 78.4%; Activity [12]: 11.58%; TGI [13]: 59.8% |
| CCS(=O)(=O)Nc1nc(-c2ccc(F)cc2)c(-c2ccnc(Nc3ccc(N4CCOCC4)cc3)n2)s1 | 7.43 | – |
| CCS(=O)(=O)N1CCC(c2nc(-c3ccc(F)cc3)c(-c3ccnc(Nc4ccc(N5CCN(C)CC5)cc4OC)n3)s2)CC1 | 7.15 | – |
| COc1cc(N2CCC(N3CCN(C)CC3)CC2)c(C)cc1Nc1nccc(-n2ccnc2-c2ccc(F)cc2)n1 | 7.55 | – |
| CN(C)CCn1ccc2cc(Nc3nccc(-n4ccnc4-c4ccc(C(F)(F)F)cc4)n3)ccc21 | < 6.00 | – |
| CCS(=O)(=O)N1CCC(c2nc(-c3ccc(F)cc3)c(-c3ccnc(Nc4ccc(N5CCOCC5)c(F)c4)n3)s2)CC1 | 7.11 | – |
| CN(C)CCn1ccc2cc(Nc3nccc(-n4ccnc4-c4ccc(Cl)cc4)n3)ccc21 | 7.07 | – |
| CCS(=O)(=O)Nc1nc(-c2ccc(F)cc2)c(-c2ccnc(Nc3cc(-c4cnn(C)c4)c(N4CCOCC4)cc3OC)n2)s1 | 7.15 | – |
| COc1cc(N2CCN(C)CC2)ccc1Nc1nccc(-n2ccnc2-c2ccc(F)cc2)n1 | 6.90 | – |

Second part, led by results:

| pIC50 [1] | SMILES | further results |
| --- | --- | --- |
| 7.59 | CN(C)CCn1ccc2cc(Nc3nccc(-c4sc(N5CCOCC5)nc4-c4ccc(F)cc4)n3)ccc21 | – |
| 8.37 | CCCCS(=O)(=O)Nc1nc(-c2ccc(F)cc2)c(-c2ccnc(Nc3ccc4c(ccn4CCN(C)C)c3)n2)s1 | – |
| 8.49 | CC(=O)Nc1nc(-c2ccc(F)cc2)c(-c2ccnc(Nc3ccc4c(ccn4CCN(C)C)c3)n2)s1 | pIC50 [2]: 8.31; pIC50 [3]: 7.85; pIC50 (A-431): 6.35; pIC50 (PC-9 [4]): 7.70; pIC50 (NCI-H1975): 6.47; pIC50 (PC-9 [5]): 8.10; pIC50 [6]: 8.68; pIC50 [7]: 7.18; pIC50 [8]: 6.80 |
| 8.74 | CCS(=O)(=O)Nc1nc(-c2ccc(F)cc2)c(-c2ccnc(Nc3ccc(N4CCN(C)CC4)cc3)n2)s1 | – |
| 7.70 | CN(C)CCn1ccc2cc(Nc3nccc(-c4sc(NS(=O)(=O)C5CCCCC5)nc4-c4ccc(F)cc4)n3)ccc21 | – |
| 7.74 | CCS(=O)(=O)N1CCC(c2nc(-c3ccc(F)cc3)c(-c3ccnc(Nc4ccc(N5CCN(C)CC5)cc4)n3)s2)CC1 | pIC50 [2]: 8.10; pIC50 [3]: 7.52; pIC50 (A-431): 5.92; pIC50 (PC-9 [4]): 8.22; pIC50 (NCI-H1975): 6.72; pIC50 (PC-9 [5]): 7.10; pIC50 [6]: 8.62; pIC50 [7]: 7.28; pIC50 [8]: 6.78 |
| 8.60 | CCS(=O)(=O)Nc1nc(-c2ccc(F)cc2)c(-c2ccnc(Nc3ccc(N4CCN(C)CC4)cc3OC)n2)s1 | – |
| 8.66 | CCN1CCN(c2ccc(Nc3nccc(-c4sc(NS(=O)(=O)CC)nc4-c4ccc(F)cc4)n3)cc2)CC1 | – |
| 7.59 | CCN1CCN(c2ccc(Nc3nccc(-c4sc(C5CCN(S(=O)(=O)CC)CC5)nc4-c4ccc(F)cc4)n3)cc2)CC1 | – |
| 7.96 | Cc1nc(-c2ccc(F)cc2)c(-c2ccnc(Nc3ccc4c(ccn4CCN(C)C)c3)n2)s1 | – |
| 8.20 | CCS(=O)(=O)Nc1nc(-c2ccc(F)cc2)c(-c2ccnc(Nc3ccc4c(ccn4CCN4CCOCC4)c3)n2)s1 | – |
| 7.70 | CC(C)c1nc(-c2ccc(F)cc2)c(-c2ccnc(Nc3ccc4c(ccn4CCN(C)C)c3)n2)s1 | – |
| 8.44 | CCS(=O)(=O)Nc1nc(-c2ccc(F)cc2)c(-c2ccnc(Nc3ccc(N4CCN(C)CC4)c(C)c3)n2)s1 | – |
| 8.47 | CC(C)S(=O)(=O)Nc1nc(-c2ccc(F)cc2)c(-c2ccnc(Nc3ccc4c(ccn4CCN(C)C)c3)n2)s1 | – |
| 7.82 | CN(C)CCn1ccc2cc(Nc3nccc(-c4sc(NS(=O)(=O)c5ccc(F)cc5)nc4-c4ccc(F)cc4)n3)ccc21 | – |
| 8.68 | CN(C)CCn1ccc2cc(Nc3nccc(-c4sc(N)nc4-c4ccc(F)cc4)n3)ccc21 | – |
| 8.60 | CN(C)CCn1ccc2cc(Nc3nccc(-c4sc(NS(C)(=O)=O)nc4-c4ccc(F)cc4)n3)ccc21 | – |
| 9.05 | CCS(=O)(=O)Nc1nc(-c2ccc(F)cc2)c(-c2ccnc(Nc3ccc4c(ccn4CCN(C)C)c3)n2)s1 | – |
| 7.82 | CCS(=O)(=O)N1CCC(c2nc(-c3ccc(F)cc3)c(-c3ccnc(Nc4ccc(C5CCN(C)CC5)cc4)n3)s2)CC1 | – |
| 8.68 | CCS(=O)(=O)Nc1nc(-c2ccc(F)cc2)c(-c2ccnc(Nc3ccc(C4CCN(C)CC4)cc3)n2)s1 | – |
| 8.43 | CCS(=O)(=O)Nc1nc(-c2ccc(F)cc2)c(-c2ccnc(Nc3ccc(N4CCN(C(C)C)CC4)cc3)n2)s1 | – |
| 7.77 | CN(C)CCn1ccc2cc(Nc3nccc(-n4ccnc4-c4ccc(F)cc4)n3)ccc21 | – |
| 8.39 | CCS(=O)(=O)Nc1nc(-c2ccc(F)cc2)c(-c2ccnc(Nc3ccc(N4CCOCC4)c(F)c3)n2)s1 | – |
| 7.72 | CNc1nc(-c2ccc(F)cc2)c(-c2ccnc(Nc3ccc4c(ccn4CCN(C)C)c3)n2)s1 | – |
